This is an account of results in patent US6153616A, “Triazoles as therapeutic agents for fungal infections” (Synphar Laboratories, Inc., priority 1998, dated 2000).

Values after ≈ are worked out from the molar mass of the structure shown. Like-named read-outs stand apart in the source and are kept apart here.

One data set deals with Saccheromyces cerevisiae. Description: In vitro antifungal activity (minimum inhibitory concentration), Saccheromyces cerevisiae. Format: cell-based.
The test system of the next data set is C. tropicalis. The data set can be described thus: In vitro antifungal activity (minimum inhibitory concentration), C. tropicalis. The following applies: Candida tropicalis, 48 h at 37° C. Format: cell-based. As for the experimental part: (§1) The compounds of the present invention were evaluated in vitro for their antifungal activity and were assessed based on minimum inhibitory concentration of the test compound, i.e. the concentration of the test compound at which growth of particular organism fails to occur. […] The microorganisms used in this test include Candida albicans, C. tropicalis, C. kefyr, C. krusei, C. guilliermondii, C. glabrata, Cryptococcus neoformans, Aspergillus niger and A. fumigatus.

The subject of another data set is Aspergillus fumigatus. Description: In vitro antifungal activity (minimum inhibitory concentration), Aspergillus fumigatus. To be noted: 48 h at 37° C. In kind it is cell-based. On the procedure:
as §1

Another data set deals with A. fumigatus. Description: In vivo therapeutic efficacy, A. fumigatus systemic infection in mice. To be noted: Aspergillus fumigatus, oral, i.v. and s.c. routes, survival vs control, read-out: Therapeutic efficacy (ED50) in mice systemic infections. On the procedure:
(§2) Certain selected compounds were evaluated in-vivo for their antifungal efficacy. Series of doses of test compounds were administered by oral, i.v and s.c. routes to infected mice, i.e mice that are inoculated with a strain of Candida albicans or Aspergillus fumigatus. Efficacy of test compound was determined based on survival of treated mice compared to control. The in vivo efficacy was assessed based on ED50 of the test compound. The following table provides ED50 of certain compounds for systemic infections of C. albicans and A. fumigatus in mice models.

The subject of the next data set is C. glabrata. The data set can be described thus: In vitro antifungal activity (minimum inhibitory concentration), C. glabrata. Format: cell-based. To be noted: Nakaseomyces glabratus, 48 h at 37° C. As for the experimental part: as §1
The next data set concerns Candida albicans. Description: In vitro antifungal activity (minimum inhibitory concentration), Candida albicans. Format: cell-based. The following applies: 48 h at 37° C. As for the experimental part:
as §1

A further data set deals with C. kefyr. Description: In vitro antifungal activity (minimum inhibitory concentration), C. kefyr. In kind it is cell-based. To be noted: Kluyveromyces marxianus, 48 h at 37° C. On the procedure:
as §1

The test system of the next data set is Cryptococcus neoformans. Description: In vitro antifungal activity (minimum inhibitory concentration), Cryptococcus neoformans. Format: cell-based. The following applies: 48 h at 37° C. On the procedure:
as §1

The next data set concerns C. albicans. Description: In vivo therapeutic efficacy, C. albicans systemic infection in mice. To be noted: Candida albicans, oral, i.v. and s.c. routes, survival vs control, read-out: Therapeutic efficacy (ED50) in mice systemic infections. On the procedure:
as §2

The subject of another data set is C. guilliermondii. Description: In vitro antifungal activity (minimum inhibitory concentration), C. guilliermondii. Format: cell-based. To be noted: Meyerozyma guilliermondii, 48 h at 37° C. On the procedure:
as §1

The test system of another data set is C. krusei. Description: In vitro antifungal activity (minimum inhibitory concentration), C. krusei. In kind it is cell-based. The following applies: Pichia kudriavzevii, 48 h at 37° C. As for the experimental part:
as §1

In a further data set the test system is A. niger. The data set can be described thus: In vitro antifungal activity (minimum inhibitory concentration), A. niger. In kind it is cell-based. To be noted: Aspergillus niger, 48 h at 37° C. On the procedure:
as §1

The test system of a further data set is filamentous fungi. The following applies: background; cited from earlier work.
For data set [1] the following is noted: background; cited from earlier work.
The conditions of data set [2]: background; cited from earlier work. This is another data set of the same source.
Where [3] appears, read: Saccheromyces cerevisiae, 48 h at 37° C., read-out: MIC.

One may read the MIC as the smallest concentration in the dilution series that meets the test's criterion for growth inhibition. A word on the ED50: it is the midpoint of the dose-response relation. Turning to `CCC(CC)n1ncn(-c2ccc(N3CCN([C@H](C)[C@](O)(Cn4cncn4)c4ccc(F)cc4F)CC3)cc2)c1=O` [Example 36], the MIC in the data set on Saccheromyces cerevisiae (setting [3]) turned out to be 0.19 µg/mL (≈ 0.335 µM); against C. tropicalis it was 0.09 µg/mL (≈ 0.159 µM); against Aspergillus fumigatus, 0.39 µg/mL (≈ 0.688 µM); in the data set on C. glabrata, 0.09 µg/mL (≈ 0.159 µM); in the data set on Candida albicans, 0.09 µg/mL (≈ 0.159 µM); against C. kefyr it was 0.048 µg/mL (≈ 0.0847 µM). The MIC against Cryptococcus neoformans came to 0.048 µg/mL (≈ 0.0847 µM); against C. guilliermondii it was 0.048 µg/mL (≈ 0.0847 µM); against C. krusei it was 0.09 µg/mL (≈ 0.159 µM); with A. niger, 0.78 µg/mL (≈ 1.38 µM). The median effective dose (ED50) was > 45 mg/kg in the data set with A. fumigatus and 8.01 mg/kg in the data set on C. albicans.

With `CCC(C)n1ncn(-c2ccc(N3CCN([C@H](C)[C@](O)(Cn4cncn4)c4ccc(F)cc4F)CC3)cc2)c1=O` (stereo partly drawn) [Example 40, (2R,3R)-3-[4-{4-[2-(2-Butyl)-2H-1,2,4-triazol-3-one-4-yl]phenyl}piperazin-1-yl]2-(2,4-difluorophenyl)-1-(1H-1,2,4-triazol-1-yl)butan-2-ol], the minimal inhibitory concentration (MIC) in the data set with Saccheromyces cerevisiae (setting [3]) stood at 0.09 µg/mL (≈ 0.163 µM); against C. tropicalis, 0.048 µg/mL (≈ 0.0869 µM); against Aspergillus fumigatus, 0.39 µg/mL (≈ 0.706 µM); against C. glabrata, 0.39 µg/mL (≈ 0.706 µM); against Candida albicans, 0.09 µg/mL (≈ 0.163 µM); with C. kefyr, 0.048 µg/mL (≈ 0.0869 µM). For the same molecule, the MIC against Cryptococcus neoformans was 0.48 µg/mL (≈ 0.869 µM); against C. guilliermondii, 0.048 µg/mL (≈ 0.0869 µM); with C. krusei, 0.19 µg/mL (≈ 0.344 µM); in the data set on A. niger, 0.78 µg/mL (≈ 1.41 µM). The ED50 with A. fumigatus came to 67 mg/kg; in the data set on C. albicans, 4.68 mg/kg.

Regarding `CC(C)n1ncn(-c2ccc(N3CCN([C@H](C)[C@](O)(Cn4cncn4)c4ccc(F)cc4F)CC3)cc2)c1=O` [Example 41, (2R,3R)-2-(2,4-Difluorophenyl)-3-[4-{4-[2-(2-propyl)-2H-1,2,4-triazol-3-one-4-yl]phenyl}piperazin-1-yl]-1-(1H-1,2,4-triazol-1-yl)butan-2-ol], the MIC was 0.19 µg/mL (≈ 0.353 µM) with Saccheromyces cerevisiae (setting [3]); 0.09 µg/mL (≈ 0.167 µM) against C. tropicalis; 0.78 µg/mL (≈ 1.45 µM) against Aspergillus fumigatus; 0.78 µg/mL (≈ 1.45 µM) against C. glabrata; 0.09 µg/mL (≈ 0.167 µM) in the data set with Candida albicans; 0.48 µg/mL (≈ 0.891 µM) in the data set with C. kefyr. Also, the minimum inhibitory concentration (MIC) was 0.48 µg/mL (≈ 0.891 µM) in the data set on Cryptococcus neoformans, 0.048 µg/mL (≈ 0.0891 µM) against C. guilliermondii, 1.56 µg/mL (≈ 2.9 µM) with C. krusei and 3.12 µg/mL (≈ 5.79 µM) with A. niger. In addition, the ED50 was 89.3 mg/kg in the data set on A. fumigatus and 8.01 mg/kg in the data set on C. albicans.

For `CC(O)Cn1ncn(-c2ccc(N3CCN([C@H](C)[C@](O)(Cn4cncn4)c4ccc(F)cc4F)CC3)cc2)c1=O` (stereo partly drawn) [Example 42, (2R,3R)-2-(2,4-Difluorophenyl)-3-[4-{4-[2-(2-hydroxypropyl)-2H-1,2,4-triazol-3-one-4-yl]phenyl}piperazin-1-yl]-1-(1H-1,2,4-triazol-1-yl)butan-2-ol], the MIC in the data set with Saccheromyces cerevisiae (setting [3]) amounted to 0.39 µg/mL (≈ 0.703 µM); against C. tropicalis, 0.09 µg/mL (≈ 0.162 µM); in the data set with Aspergillus fumigatus, 0.39 µg/mL (≈ 0.703 µM); against C. glabrata it was 12.5 µg/mL (≈ 22.5 µM); against Candida albicans, 0.09 µg/mL (≈ 0.162 µM); in the data set with C. kefyr, 0.048 µg/mL (≈ 0.0865 µM). The MIC with Cryptococcus neoformans amounted to 0.19 µg/mL (≈ 0.343 µM); against C. guilliermondii, 0.09 µg/mL (≈ 0.162 µM); in the data set with C. krusei it was 1.56 µg/mL (≈ 2.81 µM); in the data set on A. niger, 3.12 µg/mL (≈ 5.63 µM). Besides, the 50% effective dose (ED50) is 71.1 mg/kg with A. fumigatus and > 90 mg/kg in the data set on C. albicans.

`C[C@@H](N1CCN(c2ccc(-n3cnn(Cc4ccc(C(F)(F)F)cc4)c3=O)cc2)CC1)[C@](O)(Cn1cncn1)c1ccc(F)cc1F` [Example 43]: the MIC with Saccheromyces cerevisiae (setting [3]) amounted to 0.09 µg/mL (≈ 0.137 µM); against C. tropicalis, 0.048 µg/mL (≈ 0.0733 µM); in the data set with Aspergillus fumigatus, 0.19 µg/mL (≈ 0.29 µM); with C. glabrata, 0.78 µg/mL (≈ 1.19 µM); in the data set with Candida albicans, 0.048 µg/mL (≈ 0.0733 µM); against C. kefyr, 0.048 µg/mL (≈ 0.0733 µM). For the same molecule, the minimum inhibitory concentration (MIC) turned out to be 0.048 µg/mL (≈ 0.0733 µM) against Cryptococcus neoformans, 0.09 µg/mL (≈ 0.137 µM) against C. guilliermondii, 0.09 µg/mL (≈ 0.137 µM) with C. krusei and 0.19 µg/mL (≈ 0.29 µM) in the data set on A. niger. Also, the ED50 in the data set on A. fumigatus was 42.3 mg/kg; with C. albicans, 1.57 mg/kg.

Turning to `C[C@@H](N1CCN(c2ccc(-n3cnn(CC(F)(F)C(F)F)c3=O)cc2)CC1)[C@](O)(Cn1cncn1)c1ccc(F)cc1F` [Example 44], the MIC with Saccheromyces cerevisiae (setting [3]) worked out at 0.048 µg/mL (≈ 0.0786 µM); against C. tropicalis, 0.048 µg/mL (≈ 0.0786 µM); in the data set with Aspergillus fumigatus, 0.048 µg/mL (≈ 0.0786 µM); in the data set on C. glabrata, 1.56 µg/mL (≈ 2.56 µM); against Candida albicans it was 0.048 µg/mL (≈ 0.0786 µM); with C. kefyr, 0.048 µg/mL (≈ 0.0786 µM). For the same molecule, the MIC came to 0.048 µg/mL (≈ 0.0786 µM) in the data set on Cryptococcus neoformans, 0.048 µg/mL (≈ 0.0786 µM) in the data set with C. guilliermondii, 0.09 µg/mL (≈ 0.147 µM) with C. krusei and 0.19 µg/mL (≈ 0.311 µM) in the data set with A. niger.

As to `C[C@@H](N1CCN(c2ccc(-n3cnn(Cc4ccc(F)cc4F)c3=O)cc2)CC1)[C@](O)(Cn1cncn1)c1ccc(F)cc1F` [Example 46], the MIC in the data set with Saccheromyces cerevisiae (setting [3]) amounted to 0.09 µg/mL (≈ 0.145 µM); against C. tropicalis, 0.048 µg/mL (≈ 0.0771 µM); in the data set on Aspergillus fumigatus, 0.048 µg/mL (≈ 0.0771 µM); in the data set with C. glabrata it was 0.39 µg/mL (≈ 0.626 µM); in the data set on Candida albicans, 0.048 µg/mL (≈ 0.0771 µM); in the data set with C. kefyr, 0.048 µg/mL (≈ 0.0771 µM). Also, the minimal inhibitory concentration (MIC) was 0.048 µg/mL (≈ 0.0771 µM) in the data set on Cryptococcus neoformans, 0.048 µg/mL (≈ 0.0771 µM) against C. guilliermondii, 0.19 µg/mL (≈ 0.305 µM) in the data set with C. krusei and 0.09 µg/mL (≈ 0.145 µM) against A. niger. Besides, the results for the ED50 in the data set with A. fumigatus and in the data set on C. albicans were > 45 mg/kg and 56 mg/kg, respectively.

Regarding `OC(Cn1cncn1)(Cn1cncn1)c1ccc(F)cc1F` [Fluconazole, reference compound], the minimal inhibitory concentration (MIC) against Saccheromyces cerevisiae (48 h) was 6.25 µg/mL (≈ 20.4 µM); against C. tropicalis it was 0.39 µg/mL (≈ 1.27 µM); in the data set on Aspergillus fumigatus, > 100 µg/mL; with C. glabrata it was 12.5 µg/mL (≈ 40.8 µM); against Candida albicans it was 0.78 µg/mL (≈ 2.55 µM); in the data set on C. kefyr it was 0.39 µg/mL (≈ 1.27 µM). Besides, the minimum inhibitory concentration (MIC) was 1.56 µg/mL (≈ 5.09 µM) with Cryptococcus neoformans, 1.56 µg/mL (≈ 5.09 µM) with C. guilliermondii, 50 µg/mL (≈ 163 µM) in the data set with C. krusei and > 100 µg/mL in the data set on A. niger. Besides, the “activity against filamentous fungi” value with filamentous fungi is reported as “not active against filamentous fungi”.

Turning to `CCC(C)n1ncn(-c2ccc(N3CCN(c4ccc(OCC5COC(Cn6cncn6)(c6ccc(Cl)cc6Cl)O5)cc4)CC3)cc2)c1=O` (stereo not shown) [Itraconazole, reference compound], the MIC in the data set on Saccheromyces cerevisiae (setting [3]) worked out at 0.39 µg/mL (≈ 0.553 µM); in the data set with C. tropicalis, 0.09 µg/mL (≈ 0.128 µM); in the data set with Aspergillus fumigatus, 0.19 µg/mL (≈ 0.269 µM); against C. glabrata it was 0.19 µg/mL (≈ 0.269 µM); against Candida albicans, 0.09 µg/mL (≈ 0.128 µM); with C. kefyr, 0.09 µg/mL (≈ 0.128 µM). The MIC in the data set with Cryptococcus neoformans is 0.39 µg/mL (≈ 0.553 µM); against C. guilliermondii it was 0.19 µg/mL (≈ 0.269 µM); against C. krusei it was 0.39 µg/mL (≈ 0.553 µM); with A. niger, 0.39 µg/mL (≈ 0.553 µM). Also, in data set [1], the protein binding entry was “high protein binding”. Besides, the bioavailability entry in data set [2] is reported as “less bioavailability”. The “activity against filamentous fungi” value in the data set on filamentous fungi is given as “active against filamentous fungi”.
